Measured values: patent US20260207548A1, “METHODS AND COMPOSITIONS FOR THE TREATMENT OF VASCULAR ANOMALIES” (THE CHILDREN'S MEDICAL CENTER CORPORATION, priority 2022, published 2026)
“Also recorded” adds a separate entry of the source.

How the values were obtained:
SOX18 = biological target: T1, SOX18 (Homo sapiens, UniProt P35713); details: cited from earlier work
T1 sequence (P35713 1-384): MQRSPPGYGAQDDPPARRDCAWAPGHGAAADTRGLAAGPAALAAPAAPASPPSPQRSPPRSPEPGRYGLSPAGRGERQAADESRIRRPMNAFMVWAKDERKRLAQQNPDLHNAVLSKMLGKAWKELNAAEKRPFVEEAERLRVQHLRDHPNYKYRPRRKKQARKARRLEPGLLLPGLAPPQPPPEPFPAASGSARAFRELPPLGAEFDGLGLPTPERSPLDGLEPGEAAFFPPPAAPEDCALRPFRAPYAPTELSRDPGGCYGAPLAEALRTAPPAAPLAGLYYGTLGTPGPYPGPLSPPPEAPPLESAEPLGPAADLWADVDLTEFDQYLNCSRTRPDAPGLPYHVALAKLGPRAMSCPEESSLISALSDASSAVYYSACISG

SREBP2 [1] = experiment: SOX18 shRNA knockdown HemEC: SREBP2 Western blot and qPCR of SREBP2 target genes; format: cell-based, human; details: shSOX18 HemEC
Protocol: shRNA knockdown of SOX18: HemEC (n=3) were transduced with SOX18 shRNA lentivirus (TRCN0000017450, Sigma) or an empty vector control virus (Sigma) followed by puromycin (1 μg/mL) selection for 5 days. Thereafter, cells were maintained in full media without puromycin. Knockdown efficiency was confirmed by qPCR and Western Blot (FIG. 7C-7G, 8A-8B).
(§1) Cells were lysed in a RIPA-based lysis buffer (25 mM Tris HCl pH 7.6, 150 mM NaCl, 1% NP-40, 1% sodium deoxycholate, 0.1% SDS) with protease and phosphatase inhibitors (Cell Signaling Technology). Cell extracts were electrophoresed by sodium dodecyl sulfate-polyacrylamide gel electrophoresis (SDS-PAGE), transferred to nitrocellulose or to polyvinylidene difluoride (PDVF) and probed with SOX18 D-8 (Santa Cruz Biotechnology) or SREBP2 clone 22D5 (MilliporeSigma) and GAPDH (Cell Signaling Technology). All signals were detected by enhanced chemiluminescence. The densitometric analysis was conducted by using Fiji ImageJ software.

[2] = test system: cholesterol biosynthesis in HUVEC; experiment: Endogenous cholesterol in cholesterol-depleted HUVEC by mass spectrometry; format: cell-based, human; details: 16 hours
Protocol: Cell culture: HUVECs were grown in EBM-2 media (Lonza, CC-3156) and supplemented with EGM-2 bullet kit (Lonza, CC-3162). HUVECs were seeded on 0.5% gelatin-coated 6-well plates at a density of 1.5×10^5 cells/well for overnight.
Methyl-β-cyclodextrin treatment: The day after cell seeding cells were treated with, (MBCD, Sigma #C4555) at a concentration of 2.5 mM to ensure a similar level of endogenous cholesterol among the groups. The treatment with MBCD was completely withdrawn after 4 hours by discarding the media and washed the cells with PBS. […] Cells were then washed with PBS and trypsinized. Following trypsinization cells were washed with PBS and centrifuged (FIG. 4B, 4C).
Cholesterol measurement using Targeted Mass Spectrometry: Lipids were extracted from the cell pellets through one-phase extraction with 202 μL of BuOH: MeOH (1:1) (Sigma #71-36-3 and #67-56-1) that contains […] of cholesterol-d7 (Cayman Chemical #83199-47-7) as the internal standard. The cholesterol analysis was performed on a Thermo Fisher TSQ Altis triple quadrupole mass spectrometer, operated in positive ion mode, coupled to a Vanquish UHPLC system (Thermo Fisher, Waltham, USA) using the transition from precursor mass of m/z 369.3516 (MS1) to m/z 161.1 (MS3) for cholesterol and 376.4 to 161.1 for cholesterol-d7 [REF]. […]

[3] = test system: MVP genes (HMGCS1, HMGCR, MVK, ABCA1); experiment: Mevalonate pathway (MVP) gene transcripts in differentiating HemSC, bulk RNA-seq and qPCR; format: cell-based, human; details: for transcripts encoding MVP enzymes (incl. HMGCR, HMGCS1, MVK), RNA-seq: 20 μM, 2 hours, Day 6 of differentiation, hydrochloride
SREBP2 [4] = experiment: Western blot of SREBP2 in HemSC undergoing endothelial differentiation; format: cell-based, human; details: 2 hours on Day 6 of differentiation, hydrochloride
Protocol: as §1

[5] = test system: Hemangioma-derived stem cells (HemSC); details: earlier work; cited from earlier work
HemSC [6] = details: earlier work; cited from earlier work
infantile hemangioma = details: infants with IH; cited from earlier work
[7] = test system: β1- and β2-adrenergic receptors; details: cited from earlier work
LDL-receptor = LDL-receptor mRNA in HemSC as indirect measure of HMGCR inhibition; format: cell-based, human; details: 1 μM atorvastatin, 24 hours
[8] = test system: Hemangioma-derived stem cells (HemSC); experiment: IH xenograft model: patient-derived HemSC in Matrigel injected subcutaneously into nude mice, human blood vessel formation; format: in vivo
Protocol: MilliporeSigma) was prepared in DMSO. […] Dako, Glostrup, 0823) to stain human ECs. Next, sections were incubated with Alexa Fluor 647 chicken anti-mouse IgG (1:200, Invitrogen, Thermo Fisher Scientific) as a secondary antibody (FIG. 9C, 9D).

HemSC [9] = details: atorvastatin 0.1 μM, 6 days
breast cancer model = details: in vivo; cited from earlier work
zebrafish = details: in vivo; cited from earlier work

CC(C)NC[C@@H](O)COc1cccc2ccccc12.Cl [R(+) propranolol, R(+) propranolol hydrochloride]
SOX18 activity (SOX18): inhibit
HMGCS1 and HMGCR mRNA levels (SREBP2 [1]): did not reduce the mRNA levels
endogenous cholesterol levels ([2]; 20 μM R+ propranolol after MBCD depletion, hydrochloride): significantly reduced; also recorded: decreased new synthesis of cholesterol
transcripts encoding MVP enzymes (incl. HMGCR, HMGCS1, MVK), RNA-seq [3]: significantly reduced transcripts encoding several enzymes of the MVP
transcripts encoding MVP enzymes (incl. HMGCR, HMGCS1, MVK), RNA-seq ([3]; listed as R+ propranolol): inhibits eight enzymes in the mevalonate pathway
ABCA1 mRNA, qPCR ([3]; 2 hours or 4 days treatment): upregulated
HMGCS1, HMGCR and MVK mRNA, qPCR ([3]; 2 hours or 4 days treatment): Downregulation
downregulation of MVP transcripts ([3]; Day 4 of differentiation): not seen
mature 62 kDa SREBP2 (SREBP2 [4]): decreased mature 62 kDa SREBP2
mature 62 kDa SREBP2 (SREBP2 [4]; listed as R+ propranolol): decreased levels of 62 kDa mature SREBP2
HemSC vasculogenesis in vivo [5]: inhibits
HemSC endothelial differentiation in vitro (HemSC [6]): inhibits

CC(C)NCC(O)COc1cccc2ccccc12 (stereo not drawn) [propranolol]
complete response rate (infantile hemangioma): 60%
β1 and β2-adrenergic receptor antagonism [7]: non-selective antagonist

CC(C)NC[C@H](O)COc1cccc2ccccc12 (single isomer, unassigned) [S(−) enantiomer]
β1 and β2-adrenergic receptor antagonism [7]: potent antagonist

CC(C)c1c(C(=O)Nc2ccccc2)c(-c2ccccc2)c(-c2ccc(F)cc2)n1CC[C@@H](O)C[C@@H](O)CC(=O)O [atorvastatin]
LDL-R mRNA (LDL-receptor): significant upregulation of LDL-R mRNA; also recorded: increase LDL receptor mRNA
human CD31+ blood vessel formation from HemSC ([8]; atorvastatin 1 mg/kg/d, 7 days): significantly blocked the formation of human blood vessels; also recorded: significantly inhibited human CD31+ blood vessel formation
HemSC blood vessel formation in xenograft model ([8]; overall statement, no single dose): inhibited blood vessel formation; also recorded: significantly reduced HemSC blood vessel formation in a dose-dependent manner; also recorded: inhibit IH vessel formation
VEGF-B induced endothelial differentiation (mRNA of CD31 and VE-Cadherin) (HemSC [9]): significantly inhibited endothelial differentiation; also recorded: inhibited VEGF-B induced endothelial differentiation

CCC(C)(C)C(=O)O[C@H]1C[C@@H](C)C=C2C=C[C@H](C)[C@H](CC[C@@H]3C[C@@H](O)CC(=O)O3)[C@H]21 [simvastatin]
lowest dose that showed significant reduction in IH vessels ([8]; simvastatin dose response 0.1-10 mg/kg/d): 1 mg/kg/day

CC(C)NC[C@@H](O)COc1ccc(CC(N)=O)cc1 [R(+) atenolol]
SOX18 activity (SOX18): inhibit

O=C(O)c1c(O)cccc1CCc1ccc2ccccc2c1 [Sm4]
endogenous cholesterol levels ([2]; 40 μM Sm4 after MBCD depletion): significantly reduced; also recorded: decreased new synthesis of cholesterol
tumor angio- and lymph-angiogenesis (breast cancer model): suppresses
vascular development (zebrafish): suppresses vascular development in zebrafish
